Several values for one entry are separate records, joined by “and”; a condition that tells them apart may be missing. Identical values can stand only once. Entries after “also recorded” stand apart in the source; their conditions may differ.
Assays:
[1] = tested on: multiple-antigen peptide (MAP) version of P10s; experiment: ELISA of anti-P10s antibodies in sera/plasma of vaccinated subjects; format: in vivo, human; conditions: for Immunized plasma binding to MAP (ELISA): one line per subject
Description: IgM and IgG fractions of serum antibodies from the immunized patient bind to MAP form of P10s in ELISA assays. ELISA plates were coated with 1 μg/well of the P10s MAP peptide in carbonate-bicarbonate buffer overnight. Serial dilutions were added after blocking wells in PBS containing 0.5% FBS and 0.2% Tween 20 for 1 h at 37° C. Serum dilutions were incubated for two hours at 37° C. After washing, wells were incubated with HRP-conjugated mouse anti-human IgM and IgG for 1 hour at 37° C., then substrate was added and the reaction was stopped after 20 minutes. Plates were read by an ELISA reader at […]. Titers were estimated from absorbance-versus-dilution curves by linear regression. The intercept of the regression line for each subject's pre-immune serum was defined as the absorbance cutoff for determining end-point titer for that subject, and the dilution where each sample's regression line crossed the subject's absorbance cutoff was defined to be the sample's end-point titer. Extrapolation beyond one dilution below the minimum or above the maximum actual dilutions was not allowed. This procedure normalized each subject's pre-immune titer to be 1:100, and subjects with a 10-fold or greater increase in end-point titer over the 1:100 titer are considered responders.
ELISA plates were coated with MAP version of P10s and reactivity of two-fold serial dilutions of pre- and post-immune sera was detected by HRP-conjugated anti-human IgG (FIG. 7A) and IgM (FIG. 7B). The endpoint titers shown in FIG. 7A and FIG. 7B were estimated from absorbance-versus-dilution curves by linear regression. The intercept of the regression line for each subject's pre-immune serum was the value used as the absorbance cutoff for determining end-point titer for that subject, and the dilution where each sample's regression line crossed the subject's absorbance cutoff was defined to be the sample's end-point titer. Extrapolation beyond one dilution below the minimum or above the maximum actual dilutions was not allowed. This procedure normalized each subject's pre-immune titer to be 1:100.
The presence of anti-P10s antibodies in the sera of patients before and after vaccination was assessed with ELISA. ELISA plates were coated with 1 μg/well of the multiple-antigen peptide (MAP) version of P10s in carbonate-bicarbonate buffer (Sigma-Aldrich, St. Louis, Mo.) overnight. Serial 2-fold dilutions of plasma and serum samples, from 1:100 (dilution step 0) to a final dilution of 1:12800 (dilution step 7), were added after blocking wells with PBS containing 0.5% FBS and 0.2% Tween 20 (Blocking buffer) for 1 h at 37° C. Serum dilutions in blocking buffer were incubated for two hours at 37° C. After washing, wells were incubated with HRP-conjugated mouse anti-human IgM and IgG (Sigma-Aldrich) for 1 hour at 37° C. Then Tetramethylbenzidine substrate (Sigma-Aldrich) was added and the reaction was stopped after 20 minutes. Plates were read using an ELISA reader at […].
The resulting absorbance-versus-dilution curves were used to estimate normalized endpoint titers as follows. (1) A linear regression of absorbance versus dilution step was performed on the serial dilutions of each sample from each subject, in which dilution steps were numbered as described above. (2) The intercept of the regression line for each subject's pre-immune sample was the value used as the absorbance cutoff for determining the endpoint titers of all samples collected from that subject. (3) The dilution step where each sample's regression line crossed the subject's absorbance cutoff was determined and called X(c), and the normalized endpoint titer was estimated from X(c) as Titer=1:(100*2^X(c)). This procedure normalized each subject's pre-immune titer to be 1:100. […]

[2] = tested on: NK cells; experiment: NK cell activation in mice; format: in vivo
[3] = tested on: stage IV breast cancer patients; experiment: Phase I trial: clinical response (disease progression); format: in vivo, human; conditions: one line per subject, concurrent chemotherapy
From the text: The P10s-PADRE vaccine was developed for, inter alia, treatment of breast cancer patients with high risk of disease relapse. In the Phase I trial, research participants were restricted to females with histological or cytological confirmed stage IV breast cancer. Women 18 years of age or older, of all races, with histologically or cytologically confirmed stage IV breast cancer were eligible, and subjects were enrolled after providing written, informed consent. Disease staging was done according to the American Joint Commission on Cancer (AJCC), sixth edition. The following eligibility criteria were used: The cancer may have been newly diagnosed metastatic or relapsed after primary or adjuvant therapy and must not have required a treatment change for 2 months. Treatments with anti-estrogen therapy or chemotherapy were allowed. The chemotherapy regimen could not contain steroids in the pre- or post-supportive-care medications. […] Subjects had to be immunocompetent as measured by responsiveness to two recall antigens by skin testing. […]

[4] = tested on: ZR-75-1 cells; experiment: Toxicity against ZR-75-1 cells; format: cell-based, human; conditions: other experiments
[5] = tested on: NK cells; experiment: NK cell activation in vaccinated human patients; format: in vivo; conditions: human patients administered the vaccine
[6] = tested on: cancer cells (HCC1954 and MDA-MB-231); experiment: Immunized plasma toxicity on cancer cells (both cell lines); format: cell-based, human; conditions: one line per subject
From the text: (§1) Medium in control wells contained 10% FBS.

[7] = tested on: MDA-MB-231 cells; experiment: Apoptosis induction (annexin V/propidium iodide); format: cell-based, human; conditions: overnight incubation with sera; FIG. 16
Description: Cells were incubated with 10% FBS (control) or either pre-immune or post-immune sera overnight and then harvested and stained with annexin V-FITC (FL1) and propidium iodide (FL3). Quadrants J4, P4 and Q4 show apoptotic cells in control, pre-immune serum treated and post-immune serum treated cells, respectively.

[8] = tested on: HCC1954 cells; experiment: Inhibition of migration of HCC1954 cells (transwell); format: cell-based, human; conditions: week 7 serum, 20 hours in transwells; FIG. 15
Description: Cells were starved overnight and then harvested and mixed with either pre-immune serum or postimmune serum. The cell-serum mixtures were incubated in transwells for 20 hours. The cells were then stained and those on the surface were wiped out. Migrated cells were then visualized under a light microscope and counted. Average over three replications with SD are shown.

[9] = tested on: HCC1954 cells; experiment: Binding of serum IgG to HCC1954 cells (flow cytometry); format: cell-based, human; conditions: week 7 serum, 1:100 dilution; FIG. 14A
Description: (§2) HCC1954 cells were harvested with enzyme-free buffer, washed and incubated with pre-immune sera or post-immune sera collected from the patient at Week 7. Binding of IgG antibodies in the sera to HCC1954 cells was visualized with an FITC-conjugated mouse anti-human IgG. […] The dashed line histogram show binding of IgG from pre-immune serum to HCC1954 cells. The solid line histogram show binding of IgG from post-immune serum collected at week 7 to HCC1954 cells. 1:100 dilution of the serum was used for reactivity. FIG. 14B is a bar graph showing that serum from the patient collected 7 weeks post-immunization kills HCC1954 breast cancer cells in vitro. 1×10^4 cells were seeded in wells of 96-well plate in medium containing 10% FBS. […] Medium in control wells contained 10% FBS. Media were refreshed after 24 hours. 48 hours after addition of sera, supernatants were removed, cells fixed and stained with Crystal violet. Percentage of cytotoxicity was calculated based on cell number in control wells. Error bars represent SD based on three replications. The experiment was repeated three times. Two tail Student's t-test was used for comparison of means.

[10] = tested on: MCF-7 cells; experiment: Toxicity against MCF-7 cells; format: cell-based, human; conditions: other experiments
[11] = tested on: MDA-MB-231 cells; experiment: Sensitization of tumor cells to docetaxel toxicity by post-immune serum; format: cell-based, human; conditions: 5 hours pre-incubation, docetaxel 24 hours; IC50 differs from FBS and pre-immune (P 6.21E-08, 0.002); FIG. 9
Description: MDA-MB-231 cells were cultured in RPMI medium containing 10% FBS overnight. Medium was then replaced with one that contained either pre-immune serum or post-immune serum. FBS was used as control. After 5 hours of incubation, docetaxel was added in serial dilutions into wells. 24 hours later wells were washed and live cells were fixed, stained and counted. Percentage of survival was calculated as the ratio of cell number at a given drug dose to the cell number at the “0” drug dose. Prism 5 software was used to fit dose response curves using survival data. IC50 of each curve was calculated.
MDA-MB-231 cells were cultured in RPMI medium containing 10% FBS overnight. Medium was then replaced with one that contained pre or post-immune sera. FBS was used as control. After 5 hours of incubation docetaxel was added in serial dilutions into wells. 24 hours later wells were washed and live cells were fixed, stained and counted. Percentage of survival was calculated as the ratio of cell number at a given drug dose to the cell number at the “0” drug dose. Prism 5 software was used to fit dose response curves using survival data. IC50 of each curve was calculated.

[12] = tested on: metastatic HER2+ Breast Cancer; experiment: Clinical course of patient with metastatic HER2+ breast cancer (PET scans); format: in vivo, human; conditions: one patient, on continued Vinorelbine and Trastuzumab; after initial increased PET uptake
[13] = tested on: HCC1954 cells; experiment: Serum cytotoxicity on HCC1954 cells (Example 5 patient); format: cell-based, human; conditions: week 7 serum, 10%, 48 hours; FIG. 14B
Description: as §2

[14] = tested on: MCF-10A cells; experiment: Cytotoxicity of plasma on MCF-10A; format: cell-based, human; conditions: 10% plasma, 24 hours (up to 72 hours); non-tumorigenic line; FIG. 12
Description: Pictures were taken after 24 hours of incubation with 10% plasma of the indicated subjects.
as §1

[15] = tested on: HLA-DR; conditions: cited from earlier work

## H-Trp-Arg-Tyr-Thr-Ala-Pro-Val-His-Leu-Gly-Asp-Gly-dAla-Lys-CHAla-Val-Ala-Ala-Trp-Thr-Leu-Lys-Ala-Ala-dAla-NH2 [P10s-PADRE]
[1]; 300 μg peptide per vaccination
  Immunized plasma binding to MAP (ELISA): Yes
[1]; 500 μg peptide per vaccination
  Immunized plasma binding to MAP (ELISA): Yes
[1]; 500 μg vs 300 μg, FIG. 10
  normalized endpoint titers, higher dose cohort vs lower dose cohort: higher normalized endpoint titers
[1]; Example 5 patient
  anti-peptide IgG persistence: remained high
  anti-peptide IgM persistence: returned back to the baseline by week 19
[1]; Example 5 patient, FIG. 13
  time course of anti-peptide IgM and IgG: peaked at week seven
[1]; all six subjects, FIG. 10
  IgG response to P10s MAP peptide form after immunization: persistent IgG response
[1]; all subjects of Example 3, FIGS. 4, 5
  IgG and IgM response to the vaccine: All subjects displayed an IgG and IgM response
[1]; subject #2 (300 μg), lowest of range
  increase of anti-peptide serum IgG normalized endpoint titer at week 7 compared to pre-immune: 31 folds
[1]; subjects #5 and #6 (500 μg), highest of range
  increase of anti-peptide serum IgG normalized endpoint titer at week 7 compared to pre-immune: 256 folds
[1]; three subjects evaluated further
  persistence of anti-P10s titer: starts to drop one year after the last immunization
[2]
  NK cell activation: no NK activation
[3]; 300 μg peptide per vaccination
  Disease Progression: Stable; also recorded: Progressed
[3]; 500 μg peptide per vaccination
  Disease Progression: Stable
[4]
  toxicity: toxicity was observe
[5]
  NK cell activation: NK cells were activated
[6]; 300 μg peptide per vaccination
  Immunized plasma toxicity on cancer cells: Yes
[6]; 500 μg peptide per vaccination, subject #5: high background toxicity in preimmune plasma
  Immunized plasma toxicity on cancer cells: Yes (2×) and No†
[7]
  apoptosis: induced apoptosis
[8]
  migration of cells: inhibited the migration
[9]
  binding of vaccine-induced serum to cells: bound
[10]
  toxicity: no toxicity
[11]
  effect of pre-incubation with post-immunization serum on docetaxel toxicity: sensitized tumor cells to docetaxel toxicity
[12]
  lung lesions after vaccination: improvement of their lung lesions
[13]
  cell death on incubation with post-immunization serum: significant stimulation of cell death
[14]
  toxicity of plasma: No toxicity

## dAla-Lys-CHAla-Val-Ala-Ala-Trp-Thr-Leu-Lys-Ala-Ala-dAla [PADRE]
[15]
  number of the 16 most common types of HLA-DR with which complexes are formed: at least 15

Reference: patent US10272144B2, “Compositions for and methods of treating and preventing targeting tumor associated carbohydrate antigens” (Board of Trustees of the University of Arkansas, priority 2013, dated 2019)
